{"source": "patent US20220117903A1", "about": "“DRUG DELIVERY SYSTEM AND METHOD” (SEOUL NATIONAL UNIVERSITY R&DB FOUNDATION, priority 2019, published 2022)", "tested_on": "4T1 tumors", "test": "Therapeutic efficacy in mice bearing 4T1 tumors", "type": "in vivo", "details": "doxorubicin equivalent 5 mg/kg, four treatments once every 3 days", "protocol": "Referring to FIGS. 22 and 23, the amounts of doxorubicin in four groups are equivalent at 5 mg/kg, and all mice received a total of four treatments once every 3 days.", "data": [{"compound": "COc1cccc2c1C(=O)c1c(O)c3c(c(O)c1C2=O)C[C@@](O)(C(=O)CO)C[C@@H]3O[C@H]1C[C@H](N)[C@H](O)[C@H](C)O1", "note": "[free doxorubicin, doxorubicin]", "values": [{"measurement": "effect on tumor progression / tumor growth", "value": "Neither mice treated with free doxorubicin nor with MSNs-Tz/anti-CD11b-TCO without doxorubicin had an effect on tumor progression"}]}]}
